Values after ≈ are worked out from the molar mass of the structure shown. “Also recorded” adds a separate entry of the source. Like-named read-outs stand apart in the source and are kept apart here.
Tests used:
[1] = Aqueous solubility test in 0.001N HCl; format: physicochemical; settings: 0.001 N HCl aqueous buffer, simulated gastric fluid, kinetic from dmso stock; thermodynamic solubility, HPLC, pH=3, room temperature, 24 h
Protocol: (§1) The inhibitory effects of the new analogs on HUVEC proliferation were measured using a [3H]-thymidine incorporation assay. The log P values, used as an indicator of lipophilicity, were calculated using ALOGPS2.1 software. Aqueous solubility is a key physiochemical property relevant for oral absorption. We determined the solubility of each analog in 0.001 N HCl (pH=3), which represents the acidic human gastric fluid.
Aqueous solubility test. In a 1.5 mL microcentrifuge tube, 2 ul of 10 mM compound stock solution in DMSO was added to 1 mL 0.001N HCl aqueous buffer to obtain saturated solution. The resulting mixture was shaken under 600 rpm for 24 h at room temperature. Then the tube was centrifuged at 13,000 rpm for 5 min to remove the undissolved compound. 100 ul of the supernatant was injected to an Agilent 6120 LC/MS for analysis. The mass spectrometry data was collected under SIM/Scan mode. The ions of compound Exact Mass+1 and Exact Mass+23 were monitored as selected ion monitoring (SIM) for peak area integration. Solubility was calculated according to the concentration standard curve of each compound.

HUVEC [2] = experiment: HUVEC proliferation, [3H]-thymidine incorporation assay; format: cell-based; settings: Homo sapiens, mean ± SD, three independent experiments, read-out: HUVEC inhibition IC50
CYP3A4 = molecular target: T1, CYP3A4 (Homo sapiens, UniProt P08684); experiment: CYP3A4 enzyme assay (Vivid CYP3A4 Green Screening Kit); format: in vitro ADME; settings: for CYP3A4 Inhibition (compared to intracozanole at 1 um): % enzyme inhibition at 1 uM drug / % enzyme inhibition at 1 uM itraconazole; for CYP3A4 inhibition, in words: dose response or compared with itraconazole
T1 construct: purchased ThermoFisher P2857; host or cells: baculosomes (insect-cell microsomes, own knowledge)
Protocol: And CYP3A4 inhibition was initially determined using a cell-free fluorescence-based assay at a final concentration of 1 μM (Table 2).
CYP3A4 enzyme assay. CYP3A4 enzyme activity was tested using Vivid™ CYP3A4 Green Screening Kit (ThermoFisher, #P2857) using the manufacturer's protocol. Briefly, CYP3A4 baculosomes and drugs were incubated 10 min at 37° C. Then Vivid® Substrates were added and the fluorescence (ex/em:485/520) were read every 1 min for 60 minute.

HUVEC [3] = experiment: HUVEC proliferation, [3H]-thymidine incorporation assay; format: cell-based, human; settings: for Proliferation (IC50/IC50 Itra): HUVEC IC50 relative to itraconazole; for IC50: Homo sapiens, HUVEC, [3H]-thymidine incorporation, unit inferred, values in μM, read-out: Proliferation IC50
Protocol: as §1
HUVEC Culture and Proliferation Assays. HUVEC (Lonza) were grown in EGM-2 bullet kit media (Lonza) and used at passage eight or lower. The H thymidine incorporation assays were conducted as previously described. Briefly, cells were seeded on 96-well plate at a concentration of 2000 cells/well and allowed to settle overnight. Drugs were added to each well in triplicate. After 24 hours, cells were treated with 1 μCi of [3H] thymidine for 6 h. Then cells were harvested and transferred to filtermats. The scintillation were counted and IC50 were determined using Prism software (version 6.0).

T1 sequence (P08684 whole entry): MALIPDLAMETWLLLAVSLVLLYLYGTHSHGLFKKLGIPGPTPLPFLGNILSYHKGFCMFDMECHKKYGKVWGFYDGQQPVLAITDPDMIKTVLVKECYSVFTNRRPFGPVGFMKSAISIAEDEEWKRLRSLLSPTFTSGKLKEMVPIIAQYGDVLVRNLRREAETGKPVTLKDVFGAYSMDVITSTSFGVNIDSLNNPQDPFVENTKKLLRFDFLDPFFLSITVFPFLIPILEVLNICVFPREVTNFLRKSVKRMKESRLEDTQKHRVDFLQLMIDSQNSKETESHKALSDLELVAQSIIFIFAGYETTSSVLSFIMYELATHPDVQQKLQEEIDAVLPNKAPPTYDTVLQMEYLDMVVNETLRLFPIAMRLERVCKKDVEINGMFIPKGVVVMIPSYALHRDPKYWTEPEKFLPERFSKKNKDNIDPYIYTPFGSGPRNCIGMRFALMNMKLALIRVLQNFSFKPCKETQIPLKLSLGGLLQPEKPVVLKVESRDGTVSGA

| Compound | solubility at 24 h [1] [µg/mL] | IC50 (HUVEC [2]) [nM] | CYP3A4 Inhibition (compared to intracozanole at 1 um) (CYP3A4) | CYP3A4 inhibition, in words (CYP3A4) | Proliferation (IC50/IC50 Itra) (HUVEC [3]) | IC50 (HUVEC [3]) [µM] |
| --- | --- | --- | --- | --- | --- | --- |
| CCC(C)n1ncn(-c2ccc(N3CCN(c4ccc(OC[C@@H]5CO[C@@](Cn6ccnc6)(c6ccc(Cl)cc6Cl)O5)nc4)CC3)cc2)c1=O (stereo partly drawn) [Compound 2, 4-(4-(4-(6-(((2S,4R)-2-((1H-imidazol-1-yl)methyl)-2-(2,4-dichlorophenyl)-1,3-dioxolan-4-yl)methoxy)pyridin-3-yl)piperazin-1-yl)phenyl)-2-(sec-butyl)-2,4-dihydro-3H-1,2,4-triazol-3-one] | 6.48 (≈ 9.19 µM) | 468 ± 42.2 |  |  |  |  |
| CCC(C)n1ncn(-c2ccc(N3CCN(c4ccc(OC[C@@H]5CO[C@@](Cn6ccnc6)(c6ccc(Cl)cc6Cl)O5)cc4)CC3)cn2)c1=O (stereo partly drawn) [Compound 7, 4-(5-(4-(4-(((2S,4R)-2-((1H-imidazol-1-yl)methyl)-2-(2,4-dichlorophenyl)-1,3-dioxolan-4-yl)methoxy)phenyl)piperazin-1-yl)pyridin-2-yl)-2-(sec-butyl)-2,4-dihydro-3H-1,2,4-triazol-3-one] | 41.3 (≈ 58.6 µM) | 636 ± 177 |  |  |  |  |
| CCC(C)n1ncn(-c2ccc(N3CCN(c4ccc(OC[C@@H]5CO[C@@](Cn6cnc(C(F)(F)F)n6)(c6ccc(Cl)cc6Cl)O5)cc4)CC3)cc2)c1=O (stereo partly drawn) [Compound 51, 1-sec-butyl-4-(4-(4-(4-(((2S,4R)-2-(2,4-dichlorophenyl)-2-((3-(trifluoromethyl)-1H-1,2,4-triazol-1-yl)methyl)-1,3-dioxolan-4-yl)methoxy)phenyl)piperazin-1-yl)phenyl)-1H-1,2,4-triazol-5(4H)-one] |  |  | No inhibition | reduced potency; also recorded: eliminated CYP3A4 inhibition | 1.6 |  |
| CCC(C)n1ncn(-c2ccc(N3CCN(c4ccc(OC[C@@H]5CO[C@@](Cn6nnnc6C)(c6ccc(Cl)cc6Cl)O5)cc4)CC3)cc2)c1=O (stereo partly drawn) [Compound 52, 1-sec-butyl-4-(4-(4-(4-(((2S,4R)-2-(2,4-dichlorophenyl)-2-((5-methyl-1H-tetrazol-1-yl)methyl)-1,3-dioxolan-4-yl)methoxy)phenyl)piperazin-1-yl)phenyl)-1H-1,2,4-triazol-5(4H)-one] |  |  | 0.08 |  | 0.6 |  |
| CCC(C)n1ncn(-c2ccc(N3CCN(c4ccc(OC[C@@H]5CO[C@@](Cn6nnnc6-c6ccccc6)(c6ccc(Cl)cc6Cl)O5)cc4)CC3)cc2)c1=O (stereo partly drawn) [Compound 53, 1-sec-butyl-4-(4-(4-(4-(((2S,4R)-2-(2,4-dichlorophenyl)-2-((5-phenyl-1H-tetrazol-1-yl)methyl)-1,3-dioxolan-4-yl)methoxy)phenyl)piperazin-1-yl)phenyl)-1H-1,2,4-triazol-5(4H)-one] |  |  | 0.22 |  | 0.7 |  |
| CCC(C)n1ncn(-c2ccc(N3CCN(c4ccc(OC[C@@H]5CO[C@@](CBr)(c6ccc(Cl)cc6Cl)O5)cc4)CC3)cc2)c1=O (stereo partly drawn) [Compound 57, 4-(4-(4-(4-(((2S,4R)-2-(bromomethyl)-2-(2,4-dichlorophenyl)-1,3-dioxolan-4-yl)methoxy)phenyl)piperazin-1-yl)phenyl)-1-sec-butyl-1H-1,2,4-triazol-5(4H)-one] |  |  | 0.03 |  | 3.0 | 0.569 |
| CCC(C)n1ncn(-c2ccc(N3CCN(c4ccc(OC[C@@H]5CO[C@@](CC)(c6ccc(Cl)cc6Cl)O5)cc4)CC3)cc2)c1=O (stereo partly drawn) [Compound 59, 1-sec-butyl-4-(4-(4-(4-(((2R,4R)-2-(2,4-dichlorophenyl)-2-ethyl-1,3-dioxolan-4-yl)methoxy)phenyl)piperazin-1-yl)phenyl)-1H-1,2,4-triazol-5(4H)-one] |  |  | No inhibition | totally lost CYP3A4 inhibition | 2.1 |  |
| CCC(C)n1ncn(-c2ccc(N3CCN(c4ccc(OC[C@@H]5CO[C@@](Cc6ccccc6)(c6ccc(Cl)cc6Cl)O5)cc4)CC3)cc2)c1=O (stereo partly drawn) [Compound 60, 4-(4-(4-(4-(((2R,4R)-2-benzyl-2-(2,4-dichlorophenyl)-1,3-dioxolan-4-yl)methoxy)phenyl)piperazin-1-yl)phenyl)-1-sec-butyl-1H-1,2,4-triazol-5(4H)-one] |  |  | No inhibition |  | 3.0 | 0.513 |
| CCC(C)n1ncn(-c2ccc(N3CCN(c4ccc(OC[C@@H]5CO[C@@](CC6CCCC6)(c6ccc(Cl)cc6Cl)O5)cc4)CC3)cc2)c1=O (stereo partly drawn) [Compound 61, 1-sec-butyl-4-(4-(4-(4-(((2R,4R)-2-(cyclopentylmethyl)-2-(2,4-dichlorophenyl)-1,3-dioxolan-4-yl)methoxy)phenyl)piperazin-1-yl)phenyl)-1H-1,2,4-triazol-5(4H)-one] |  |  | No inhibition |  | 3.0 |  |
| CCC(C)n1ncn(-c2ccc(N3CCN(c4ccc(OC[C@@H]5COC(c6ccc(Cl)cc6Cl)O5)cc4)CC3)cc2)c1=O (stereo partly drawn) [Compound 62, 1-sec-butyl-4-(4-(4-(4-(((4R)-2-(2,4-dichlorophenyl)-1,3-dioxolan-4-yl)methoxy)phenyl)piperazin-1-yl)phenyl)-1H-1,2,4-triazol-5(4H)-one] |  |  | No inhibition |  | 1.9 |  |
| CCC(C)n1ncn(-c2ccc(N3CCN(c4ccc(OC[C@@H]5CO[C@@](CN6CCOCC6)(c6ccc(Cl)cc6Cl)O5)cc4)CC3)cc2)c1=O (stereo partly drawn) [Compound 63, 1-(sec-butyl)-4-(4-(4-(4-(((2S,4R)-2-(2,4-dichlorophenyl)-2-(morpholinomethyl)-1,3-dioxolan-4-yl)methoxy)phenyl)piperazin-1-yl)phenyl)-1H-1,2,4-triazol-5(4H)-one] |  |  | 0.20 |  | 7.4 |  |
| CCC(C)n1ncn(-c2ccc(N3CCN(c4ccc(OC[C@@H]5CO[C@@](CN(C)C)(c6ccc(Cl)cc6Cl)O5)cc4)CC3)cc2)c1=O (stereo partly drawn) [Compound 64, 1-(sec-butyl)-4-(4-(4-(4-(((2S,4R)-2-(2,4-dichlorophenyl)-2-((dimethylamino)methyl)-1,3-dioxolan-4-yl)methoxy)phenyl)piperazin-1-yl)phenyl)-1H-1,2,4-triazol-5(4H)-one] |  |  | No inhibition |  | 8.8 |  |
| CCC(C)n1ncn(-c2ccc(N3CCN(c4ccc(OC[C@@H]5CO[C@@](CN6CCN(C)CC6)(c6ccc(Cl)cc6Cl)O5)cc4)CC3)cc2)c1=O (stereo partly drawn) [Compound 65, 1-(sec-butyl)-4-(4-(4-(4-(((2S,4R)-2-(2,4-dichlorophenyl)-2-((4-methylpiperazin-1-yl)methyl)-1,3-dioxolan-4-yl)methoxy)phenyl)piperazin-1-yl)phenyl)-1H-1,2,4-triazol-5(4H)-one] |  |  | 0.21 |  | 3.8 |  |
| CCC(C)n1ncn(-c2ccc(N3CCN(c4ccc(OC[C@@H]5CO[C@@](CN6CCNCC6)(c6ccc(Cl)cc6Cl)O5)cc4)CC3)cc2)c1=O (stereo partly drawn) [Compound 66, 1-(sec-butyl)-4-(4-(4-(4-(((2S,4R)-2-(2,4-dichlorophenyl)-2-(piperazin-1-ylmethyl)-1,3-dioxolan-4-yl)methoxy)phenyl)piperazin-1-yl)phenyl)-1H-1,2,4-triazol-5(4H)-one] |  |  | 1.09 |  | 2.5 |  |
| CCC(C)n1ncn(-c2ccc(N3CCN(c4ccc(OC[C@@H]5CO[C@@](Cn6cncn6)(c6ccc(Cl)cc6Cl)O5)nc4)CC3)cc2)c1=O (stereo partly drawn) [Compound 100, 4-(4-(4-(6-(((2S,4R)-2-((1H-1,2,4-triazol-1-yl)methyl)-2-(2,4-dichlorophenyl)-1,3-dioxolan-4-yl)methoxy)pyridin-3-yl)piperazin-1-yl)phenyl)-2-(sec-butyl)-2,4-dihydro-3H-1,2,4-triazol-3-one] | 0.116 (≈ 0.164 µM) | 687 ± 78.1 |  |  |  |  |
| CCC(C)n1ncn(-c2ccc(N3CCN(c4ccc(OC[C@@H]5CO[C@@](Cn6cncn6)(c6ccc(Cl)cc6Cl)O5)cc4)CC3)nc2)c1=O (stereo partly drawn) [Compound 102, 4-(6-(4-(4-(((2S,4R)-2-((1H-1,2,4-triazol-1-yl)methyl)-2-(2,4-dichlorophenyl)-1,3-dioxolan-4-yl)methoxy)phenyl)piperazin-1-yl)pyridin-3-yl)-2-(sec-butyl)-2,4-dihydro-3H-1,2,4-triazol-3-one] | 0.0539 (≈ 0.0763 µM) | 222 ± 23.1 |  |  |  |  |

From US12071430B2 (The Johns Hopkins University, priority 2011, dated 2024)
